Measured values: patent publication US11612553B2, “Oral care product and methods of use and manufacture thereof” (Colgate-Palmolive Company, priority 2008, dated 2023)

Tested on: S. sanguis
Experiment: Ammonia production by S. sanguis at pH 4.0
Type: cell-based
Details: mean of 6 trials; 5 millimolar amino acid, pH 4.0, 0.1% sucrose, 37° C., 30 minutes
Description: An overnight culture of S. sanguis was grown at 37° C. in trypticase soy broth (Becton Dickinson, Sparks, Md.). The culture was centrifuged at 5,000 rpm for 5 minutes at 1 milliliter at a time into preweighed tubes in order to accumulate approximately 5 milligrams of wet pellet weight. The pellet was then resuspended into 20 millimolar potassium phosphate buffer (JT Baker, Phillipsburg, N.J.), pH 4.0, to simulate a stressed environment for the bacterial cell where ammonia would be produced for survival. The final concentration was 5 milligram per milliliter. To this final concentration, a 5 millimolar final concentration of L-arginine, L-citrulline, or L-ornithine was added along with a 0.1% final concentration of sucrose (VWR, West Chester, Pa.). This mixture was then incubated at 37° C. in a shaking water bath for 30 minutes before ammonia production was determined.
In order to analyze for ammonia, an Ammonia Assay kit was used from Diagnostic Chemicals Limited (Oxford, Conn.). The intended use of this specific kit is for the in vitro quantification of ammonia in plasma, but the procedure was modified in order to determine and quantify the ammonia production in plaque and/or bacteria.

Row | SMILES | Ammonia, Mean
1 | N=C(N)NCCC[C@H](N)C(=O)O [L-Arginine, L-arginine] | 1.06 ppm
2 | NC(=O)NCCC[C@H](N)C(=O)O [L-Citrulline, L-citrulline] | 0.951 ppm
